Laboratory results published in ChEMBL document CHEMBL3425507, “Separation and peroxisome proliferator-activated receptor-γ agonist activity evaluation of synthetic racemic bavachinin enantiomers” (Bioorg Med Chem Lett, 2015).

Tests used:
[1] = Retention time of the compound by supercritical fluid chromatography; format: ADME
[2] = target: T1, Peroxisome proliferator-activated receptor gamma (Homo sapiens, UniProt P37231); assay: Agonist activity at PPARgamma ligand binding domain (unknown origin) using fluormone Pan-PPAR green tracer by TR-FRET assay based competitive ligand binding method
T1 sequence (P37231 whole entry): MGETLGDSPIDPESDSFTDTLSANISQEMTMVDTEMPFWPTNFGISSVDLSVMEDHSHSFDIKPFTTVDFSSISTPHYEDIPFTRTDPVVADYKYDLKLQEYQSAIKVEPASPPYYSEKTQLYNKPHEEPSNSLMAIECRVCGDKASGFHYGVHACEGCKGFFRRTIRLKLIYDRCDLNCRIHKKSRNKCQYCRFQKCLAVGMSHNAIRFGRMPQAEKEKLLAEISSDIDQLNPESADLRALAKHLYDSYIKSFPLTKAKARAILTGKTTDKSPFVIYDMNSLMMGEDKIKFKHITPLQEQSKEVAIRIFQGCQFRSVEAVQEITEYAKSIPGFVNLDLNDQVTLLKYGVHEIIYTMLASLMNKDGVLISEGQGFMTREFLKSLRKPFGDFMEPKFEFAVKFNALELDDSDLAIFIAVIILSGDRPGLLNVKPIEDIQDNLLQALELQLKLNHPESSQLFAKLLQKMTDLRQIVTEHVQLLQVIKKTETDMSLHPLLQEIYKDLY

Retention_time [1]	IC50 [2]	Ki [2]	SMILES
4.4 min	617 nM	221 nM	COc1cc2c(cc1CC=C(C)C)C(=O)C[C@@H](c1ccc(O)cc1)O2 [BAVACHININ A]
4.99 min	471 nM	169 nM	COc1cc2c(cc1CC=C(C)C)C(=O)C[C@H](c1ccc(O)cc1)O2
	489 nM	176 nM	COc1cc2oc(-c3ccc(O)cc3)cc(=O)c2cc1CC=C(C)C [BAVACHININ]
